# From article PMC12703741, “Light-Activated Metal-Dependent Protein Degradation: A Heterobifunctional Ruthenium(II) Photosensitizer Targeting New Delhi Metallo-β-lactamase 1” (Journal of the American Chemical Society, 2025)
# Several values for one entry are separate records, joined by “and”; a condition that tells them apart may be missing. Equal values may be shown once. Entries after “also recorded” stand apart in the source; their conditions may differ. Read-outs that look alike come from different tables or passages of the source.
# What was measured:
# [1] = organic photosensitizers; cited from earlier work
# NDM-1 [2] = molecular target: T1, NDM-1 (Klebsiella pneumoniae, UniProt C7C422)
# Method: 1.4.1 Differential Scanning Fluorimetry (DSF)
# DSF was performed using the Applied Biosystems QuantStudio 5 thermal cycler (Thermo
# Fisher Scientific). Results were analysed and Tm determined with the Applied Biosystems
# Protein Thermal Shift Software v1.4 and Tm values determined by the software. DSF was
# conducted in sealed MicroAmp Optical 384-Well Reaction Plates (Thermo Fisher Scientific).
# at a temperature ramp rate of 0.03 °C/s. For compound-protein interaction studies, a final
# containing 5X SYPRO Orange (Thermo Fisher Scientific), 50 mM HEPES and 5%(v/v)
# DMSO-d6. The final reaction volume was 20 µL per well. All DMSO compound stocks used
# for DSF experiments were freshly prepared from solid stocks. All DSF measurements were
# carried out in triplicate and the Tm reported is the mean value and the error is the standard
# deviation. For all compounds tested, a no protein control run was included to see potential
# changes in fluorescence resulting from a compound-dye interaction.
# NDM-1 in E. coli NDM-1 = NDM-1 in E. coli NDM-1 (Klebsiella pneumoniae, UniProt C7C422); conditions: E. coli NDM-1, 450 nm, 60 J cm^-2
# Method: shaking at 180 rpm for 18 hours. The overnight suspensions were subcultured (1:100) in fresh LB and incubated to yield an OD600 of 0.55-0.60. The were harvested and pelleted at 3500  g for 15 minutes at 4 °C. The pellets were washed with PBS and pelleted again under the same
# conditions. The bacteria were then stored as pellets at 4 C until required for the assay and to
# be used within 5 hours. To prepare the bacteria fo r the assay, a pellet was resuspended in an
# adjusted volume of fresh PBS to achieve an OD600 ≈ 5.0 and then kept at 4 C for 1 hr before
# being used. The bacteria were then diluted to OD600 ≈ 2.0 in fresh PBS and used immediately.
# inhibitor control, and one row of Bacteria Buffer B (50 µL) which served as a no-bacteria
# control (providing five rows in total). Bacteria stock (OD600 ≈ 2.0, 40 µL, final concentration
# of bacteria in well = OD600 ≈ 0.8) was added to each well of the first four rows, the plate was
# sealed, and the samples then pre-incubated for 60 min under either ‘dark’ or ‘light’ conditions
# Under ‘dark’ conditions, the plate was left sealed in a
# substrate in well = 100 µM) was conducted manually and then the plate immediately resealed
# substrate had been completely consumed. Method conditions are as follows: cycle time = 100
# E. coli empty = conditions: dark and light samples equivalent
# NDM-1 [3] = molecular target: T1, NDM-1; remark: listed apart in the source
# Method: In addition, intact mass spectrometry was performed on the samples prepared for SDS-PAGE.
# HDAC1 = HDAC1 (Homo sapiens, UniProt Q13547); assay: HDAC1 deacetylation assay (H3K9Ac, mass spectrometry); conditions: 100 µM compound, 3 hours, 37°C
# Method: 1.7.1 HDAC1 Assay conditions:
# The results of the assay were analysed using HRMS.
# HDAC1 was included (-HDAC1).
# NDM-1 [4] = molecular target: T1, NDM-1; assay type: biochemical; conditions: mixture of NDM-1 and BSA, 0-1000 μM
# Method: 1.8 Protein degradation via SDS-PAGE […]
# were made at 10 mM in DMSO and then diluted to the appropriate concentration (1 mM – 10 µM) in 50 mM HEPES pH 7.5. The enzyme stocks (10 µM) were made up in 50 mM HEPES pH 7.5. The compound and enzyme stocks were mixed 1:1 and then pre -incubated for 10 min […]
# ‘light’ conditions the samples were transferred to a 96 well plate to provide irradiation. For a […]
# (208 s, 96 mW cm-2). For a dose of 60 J cm-2 the plate was irradiated immediately (624 s, 96 […]
# An aliquot of each sample was mixed with SDS-sample buffer (NuPAGE® LDS Sample buffer 4x) and heated to 95°C for 3 min. The samples were loaded on to the gel (NuPAGE® 4-12% Bis-tris gel) and run at 200V/125 mA for 30 min (1 gel per Gel box) or 60 min (2 gels per Gel box). SDS-PAGE gels were imaged using a Cytiva Amersham ImageQuant™ 800.
# Densitometry of gel bands was measured and processed using Fiji (ImageJ).
# 1.8.3 BSA+NDM-1 selectivity experiment […]
# nm, 20 J cm-2). Lane 1: Ladder; Lane 2: NDM-1 – no compound control (dark); Lane 3: BSA – no compound control (dark); Lane 4: NDM-1 + BSA - no compound control (dark); Lane 5: NDM-1 + BSA + 1 eq. compound (dark); Lane 6: NDM-1 + BSA + 10 eq. compound (dark); Lane 7: NDM-1 + BSA + 100 eq. compound (dark); Lane 8: NDM-1 + BSA - no compound control (light); Lane 9: NDM-1 + BSA + 1 eq. compound (light); Lane 10: NDM-1 + BSA + 10 eq. compound (light); Lane 11: NDM-1 + BSA + 100 eq. compound (light). […]
# the dark (left) and under light irradiation (450 nm, 20 J cm-2).
# RAW264.7 = conditions: RAW
# T1 sequence (C7C422 31-270 limits assumed): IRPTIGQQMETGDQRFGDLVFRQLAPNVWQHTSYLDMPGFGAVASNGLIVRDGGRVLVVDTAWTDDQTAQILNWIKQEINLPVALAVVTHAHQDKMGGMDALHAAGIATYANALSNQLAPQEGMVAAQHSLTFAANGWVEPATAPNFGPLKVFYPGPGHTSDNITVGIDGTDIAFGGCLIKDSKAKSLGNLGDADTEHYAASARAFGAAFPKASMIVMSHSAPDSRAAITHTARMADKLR
# Chain of HDAC1 (Q13547 whole entry, species assumed): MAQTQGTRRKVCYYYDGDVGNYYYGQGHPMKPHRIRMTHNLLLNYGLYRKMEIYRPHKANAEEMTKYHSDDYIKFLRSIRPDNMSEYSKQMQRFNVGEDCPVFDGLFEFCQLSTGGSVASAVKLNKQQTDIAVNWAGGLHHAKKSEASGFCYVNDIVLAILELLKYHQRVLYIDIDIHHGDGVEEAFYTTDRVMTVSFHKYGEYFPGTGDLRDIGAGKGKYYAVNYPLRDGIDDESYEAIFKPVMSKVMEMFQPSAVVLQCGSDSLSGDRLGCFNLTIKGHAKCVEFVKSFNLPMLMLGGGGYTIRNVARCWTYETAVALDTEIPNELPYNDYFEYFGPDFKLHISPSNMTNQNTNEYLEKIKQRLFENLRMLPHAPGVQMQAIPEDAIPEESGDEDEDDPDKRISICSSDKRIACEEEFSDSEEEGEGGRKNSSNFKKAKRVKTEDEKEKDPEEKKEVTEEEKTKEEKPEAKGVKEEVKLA
# Chain of NDM-1 in E. coli NDM-1 (C7C422 29-270 limits assumed): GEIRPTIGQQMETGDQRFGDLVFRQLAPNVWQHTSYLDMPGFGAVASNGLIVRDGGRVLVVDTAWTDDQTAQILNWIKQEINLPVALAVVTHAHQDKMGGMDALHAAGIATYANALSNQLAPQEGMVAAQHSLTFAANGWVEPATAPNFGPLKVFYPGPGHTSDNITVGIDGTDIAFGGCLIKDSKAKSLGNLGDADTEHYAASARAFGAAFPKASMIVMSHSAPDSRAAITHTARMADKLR
compound,measurement,setting,value
C=CC1=C(C)c2cc3[nH]c(cc4nc(cc5[nH]c(cc1n2)c(C)c5CCC(=O)O)C(CCC(=O)O)=C4C)c(C)c3C=C [protoporphyrin IX],Excited state lifetime,[1],13 ns
"[Ru(2,2'-bipyridine)2(1-(4-(3-aminophenyl)pyridine-2,6-dicarboxylic acid)-imidazo[4,5,f][1,10]phenanthroline)](PF6)2 [Ru1]","K d,app from DSF (ΔT vs concentration)",NDM-1 [2]; apparent Kd,7.4 µM
same,Change in melting temperature (ΔT) of NDM-1,NDM-1 [2]; compound 4 μM,–3.9 °C
same,Change in melting temperature (ΔT) of NDM-1,NDM-1 [2]; compound 16 μM,–6.8 °C
same,Change in melting temperature (ΔT) of NDM-1,NDM-1 [2]; compound 63 μM,–13 °C
same,Effect on melting temperature of NDM-1,NDM-1 [2]; in words,destabilize the protein in a dose-dependent manner
same,"Fold improvement in potency, light vs dark",NDM-1 in E. coli NDM-1,30 fold
same,MIC,E. coli empty,>160 µM
same,Modification of NDM-1 (intact mass),"NDM-1 [3]; 100 equiv, without irradiation",no change
same,Modification of NDM-1 (intact mass),"NDM-1 [3]; one equivalent, light 450 nm, 20 J cm^-2",considerable modification to the protein
same,Inhibition of HDAC1,HDAC1,do not inhibit; also recorded: no off-target inhibition
same,MIC,"E. coli NDM-1; E. coli NDM-1, dark and light samples equivalent",>160 µM
same,Fold change in Meropenem MIC,"E. coli NDM-1; compound 5 μM, dark",0 fold
same,Fold change in Meropenem MIC,"E. coli NDM-1; compound 5 μM, light 450 nm, 60 J cm^-2",0.66 fold
same,Fold change in Meropenem MIC,"E. coli NDM-1; compound 10 μM, dark",0 fold
same,Fold change in Meropenem MIC,"E. coli NDM-1; compound 10 μM, light 450 nm, 60 J cm^-2",0.66 fold
same,Fold change in Meropenem MIC,"E. coli NDM-1; compound 20 μM, dark",0.66 fold
same,Fold change in Meropenem MIC,"E. coli NDM-1; compound 20 μM, light 450 nm, 60 J cm^-2",2.0 fold
same,Fold change in Meropenem MIC,"E. coli NDM-1; compound 40 μM, dark",0.66 fold
same,Fold change in Meropenem MIC,"E. coli NDM-1; compound 40 μM, light 450 nm, 60 J cm^-2",5.3 fold
same,Fold change in Meropenem MIC,"E. coli NDM-1; compound 80 μM, dark",2.6 fold
same,Fold change in Meropenem MIC,"E. coli NDM-1; compound 80 μM, light 450 nm, 60 J cm^-2",19 fold
same,Fold change in Meropenem MIC,"E. coli NDM-1; compound 160 μM, dark",9 fold and 9.3 fold
same,Fold change in Meropenem MIC,"E. coli NDM-1; compound 160 μM, light 450 nm, 60 J cm^-2",53 fold
same,Degradation of NDM-1 vs BSA (band intensity),NDM-1 [4]; dark,Both proteins were unaffected
same,Degradation of NDM-1 vs BSA (band intensity),"NDM-1 [4]; light 450 nm, 20 J cm^-2",only NDM-1 was selectively modified and degraded; also recorded: Selective degradation of NDM-1 over BSA
CN[C@@H]1C[C@H]2O[C@@](C)([C@@H]1OC)n1c3ccccc3c3c4c(c5c6ccccc6n2c5c31)C(=O)NC4 [Staurosporine],LD50,HEK293T; 24 h,0.07 µM
same,LD50,HEK293T; 48 h,0.01 µM
same,LD50,"HepG2; HepG2, 24 h",0.3 µM
same,LD50,"HepG2; HepG2, 48 h",0.09 µM
same,LD50,RAW264.7; 24 h,0.03 µM
same,LD50,RAW264.7; 48 h,0.01 µM
same,LD50,"hTERT RPE-1; RPE1, 24 h",0.01 µM
same,LD50,"hTERT RPE-1; RPE1, 48 h",0.01 µM
same,LD50,HaCaT; 24 h,0.05 µM
same,LD50,HaCaT; 48 h,0.01 µM
same,LD50,HeLa; 24 h,0.05 µM
same,LD50,HeLa; 48 h,0.02 µM
same,LD50,"HCT116; HCT116, 24 h",0.08 µM
same,LD50,"HCT116; HCT116, 48 h",0.02 µM
